Source: US20240164376A1, “SYNERGISTIC PLANT GROWTH STIMULANT COMPOSITIONS OF POTASSIUM MONO/DI-FORMATE WITH NITROGENOUS COMPOUNDS” (FERTIS INDIA PVT LTD, priority 2021, published 2024)

Tested on: paddy grains
Test: Protein content in the paddy grains
Format: in vivo

`CNC(=O)NC` [Dimethyl urea] was tested. Which “% Of Protein” value did it give?
The value was 0.0081%.

How did the “% Of Protein” value turn out when `O=C(Nc1ccccc1)Nc1ccccc1` [Diphenyl urea] was run?
Its value is 0.0089%.

How did the “% Of Protein” value turn out when `NC(=O)N(C=O)C=O` [N,Ndiformyl urea (NN-DFU), N,Ndiformyl urea] was run?
The value was 0.0112%.

Which “% Of Protein” value does the source give for `O=CO.O=C[O-].[K+]` [Potassium diformate] here?
The value was 0.0093%.

How did the “% Of Protein” value turn out when `O=C[O-].[K+]` [Potassium formate] was run?
Its value is 0.0091%.

For `NC(N)=O` [Urea], which “% Of Protein” value is on record?
Its value is 0.0063%.
